15 molecules from patent publication US10562908B2, “Ortho substituted phenylpyrazolo- and phenylpyrrolo-pyridazine derivatives having multimodal activity against pain” (priority 2016, dated 2020) can be followed below.

As usually defined, the Ki is a measure of affinity in units of concentration, obtained from inhibition or displacement.

Molecules are shown by their SMILES. Where two headings read alike, the source gives them in different places.

One experiment deals with T1, human μ-opioid receptor (Homo sapiens, UniProt P35372).
T1 construct: expressed in transfected cells; host or cells: CHO-K1
T1 sequence (P35372 whole entry): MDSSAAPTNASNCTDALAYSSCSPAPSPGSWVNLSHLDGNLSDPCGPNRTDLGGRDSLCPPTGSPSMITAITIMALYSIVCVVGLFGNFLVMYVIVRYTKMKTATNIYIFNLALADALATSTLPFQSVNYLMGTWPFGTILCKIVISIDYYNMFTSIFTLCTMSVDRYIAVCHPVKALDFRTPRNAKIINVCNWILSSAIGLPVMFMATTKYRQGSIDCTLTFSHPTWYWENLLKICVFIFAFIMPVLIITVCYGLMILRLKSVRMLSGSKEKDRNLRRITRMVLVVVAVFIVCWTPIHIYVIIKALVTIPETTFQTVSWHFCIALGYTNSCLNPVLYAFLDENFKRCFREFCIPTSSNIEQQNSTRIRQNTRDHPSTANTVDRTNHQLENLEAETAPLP
Briefly: Human μ-opioid receptor radioligand assay ([3H]-DAMGO). In kind it is binding. The method in brief: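 Transfected CHO-K1 membranes (20 μg) incubated with 1 nM [3H]-DAMGO in 50 mM Tris-HCl, 5 mM MgCl2, pH 7.4, 60 min at 27 °C; non-specific binding with 10 μM naloxone. Test compound at five concentrations; bound radioactivity counted after filtration by scintillation.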

Experiment [1] has as its target Human α2δ-1 subunit of Cav2.2 calcium channel (Homo sapiens, UniProt P54289). As to the kind of experiment: Human α2δ-1 subunit of Cav2.2 calcium channel assay ([3H]-Gabapentin). In kind it is binding. The method in brief:
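α2δ-1-enriched membranes (2.5 μg) were incubated with 15 nM [3H]-gabapentin in 10 mM Hepes-KOH pH 7.4 for 60 min at 27 °C. Non-specific binding was defined with 10 μM pregabalin. Compounds were tested at five concentrations, with filtration and scintillation counting.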

[2] abbreviates: transfected CHO-K1 cell membranes, 1 nM [3H]-DAMGO, read-out: Binding μ (Ki).
The mark [3] stands for this setting: human α2δ-1 enriched membranes, 15 nM [3H]-Gabapentin, read-out: Binding α2δ-1 (Ki).

Sequence of Human α2δ-1 subunit of Cav2.2 calcium channel (P54289 25-1103): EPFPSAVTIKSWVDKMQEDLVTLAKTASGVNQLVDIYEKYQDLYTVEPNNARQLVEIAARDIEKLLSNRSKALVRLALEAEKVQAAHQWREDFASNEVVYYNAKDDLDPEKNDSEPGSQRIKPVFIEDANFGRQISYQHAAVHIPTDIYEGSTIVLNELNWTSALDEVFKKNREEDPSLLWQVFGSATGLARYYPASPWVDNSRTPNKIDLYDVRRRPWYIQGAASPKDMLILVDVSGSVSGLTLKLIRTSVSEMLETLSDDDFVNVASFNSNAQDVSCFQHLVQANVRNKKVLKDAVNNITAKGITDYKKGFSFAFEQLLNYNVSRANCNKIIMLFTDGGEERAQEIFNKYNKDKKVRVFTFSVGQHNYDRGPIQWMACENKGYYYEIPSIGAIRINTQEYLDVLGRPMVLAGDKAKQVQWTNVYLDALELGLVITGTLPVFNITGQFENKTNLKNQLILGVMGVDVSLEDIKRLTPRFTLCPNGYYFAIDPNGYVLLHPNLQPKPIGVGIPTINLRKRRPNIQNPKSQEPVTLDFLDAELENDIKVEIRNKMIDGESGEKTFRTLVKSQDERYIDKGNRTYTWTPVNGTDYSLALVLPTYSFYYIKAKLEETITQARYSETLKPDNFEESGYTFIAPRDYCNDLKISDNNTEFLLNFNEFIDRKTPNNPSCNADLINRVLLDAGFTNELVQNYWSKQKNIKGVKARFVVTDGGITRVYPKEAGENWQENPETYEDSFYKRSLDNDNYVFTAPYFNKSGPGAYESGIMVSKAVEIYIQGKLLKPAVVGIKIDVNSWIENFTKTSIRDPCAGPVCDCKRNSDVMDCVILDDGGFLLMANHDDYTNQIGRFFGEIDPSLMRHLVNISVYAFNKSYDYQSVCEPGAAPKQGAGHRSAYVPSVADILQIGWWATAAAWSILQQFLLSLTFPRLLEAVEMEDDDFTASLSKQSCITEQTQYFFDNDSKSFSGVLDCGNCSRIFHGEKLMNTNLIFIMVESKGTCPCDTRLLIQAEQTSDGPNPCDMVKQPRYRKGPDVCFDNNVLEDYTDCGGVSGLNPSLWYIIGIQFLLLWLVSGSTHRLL

On to `CNCC(Cc1ccccc1)Oc1ccccc1-n1nc2c(N(C)C)nnc(C)c2c1C` (stereo not drawn) [Example 76, N,N,3,4-Tetramethyl-2-(2-((1-(methylamino)-3-phenylpropan-2-yl)oxy)phenyl)-2H-pyrazolo[3,4-d]pyridazin-7-amine], for which the Ki was greater than 500 nM at human μ-opioid receptor (setting [2]) and 500 to 5000 nM in experiment [1] (setting [3]).
The corresponding values for `CNCCC(Oc1ccccc1-n1nc2c(Cc3noc(C)n3)nnc(C)c2c1C)c1ccccc1` (stereo not drawn) [Example 64, 3-(2-(3,4-Dimethyl-7-((5-methyl-1,2,4-oxadiazol-3-yl)methyl)-2H-pyrazolo[3,4-d]pyridazin-2-yl)phenoxy)-N-methyl-3-phenylpropan-1-amine] are greater than 500 nM and greater than 5000 nM.
Regarding `CNCCC(Oc1ccccc1-n1nc2c(N(C)C)nnc(C)c2c1C)c1ccc(C#N)cc1` (stereo not drawn) [Example 15, 4-(1-(2-(7-(dimethylamino)-3,4-dimethyl-2H-pyrazolo[3,4-d]pyridazin-2-yl)phenoxy)-3-(methylamino)propyl)benzonitrile], the Ki at human μ-opioid receptor (setting [2]) is greater than 500 nM; in experiment [1] (setting [3]), 500 to 5000 nM.
Consider `CNCC[C@@H](Oc1ccccc1-n1nc2c(N(C)C)nnc(C)c2c1C)c1ccccc1` [Example 100, (R)-N,N,3,4-tetramethyl-2-(2-(3-(methylamino)-1-phenylpropoxy)phenyl)-2H-pyrazolo[3,4-d]pyridazin-7-amine], for which the results for the Ki (at human μ-opioid receptor; in experiment [1]) were greater than 500 nM and 500 to 5000 nM, respectively.
In the case of `CNCCC(Oc1ccccc1-n1nc2c(N3CCCC3)nnc(C)c2c1C)c1ccccc1` (stereo not drawn) [Example 36, 3-(2-(3,4-dimethyl-7-(pyrrolidin-1-yl)-2H-pyrazolo[3,4-d]pyridazin-2-yl)phenoxy)-N-methyl-3-phenylpropan-1-amine], the figures for the Ki (on human μ-opioid receptor (setting [2]); in experiment [1] (setting [3])) were greater than 500 nM and 500 to 5000 nM, respectively.
The corresponding values for `CNCCC(Oc1ccccc1-n1nc2c(N(C)C)nnc(C)c2c1C)c1cccc(C(N)=O)c1` (stereo not drawn) [Example 91, 3-(1-(2-(7-(Dimethylamino)-3,4-dimethyl-2H-pyrazolo[3,4-d]pyridazin-2-yl)phenoxy)-3-(methylamino)propyl)benzamide] are greater than 500 nM and 500 to 5000 nM.
The corresponding values for `CNCCC(C)Oc1ccccc1-n1nc2c(N(C)C)nnc(C)c2c1C` (stereo not drawn) [Example 10, N,N,3,4-tetramethyl-2-(2-((4-(methylamino)butan-2-yl)oxy)phenyl)-2H-pyrazolo[3,4-d]pyridazin-7-amine] are greater than 500 nM and 500 to 5000 nM.
`CNCCC(Oc1ccccc1-n1nc2c(N(C)C)nnc(C)c2c1C)c1cccc(F)c1` (stereo not drawn) [Example 44, 2-(2-(1-(3-fluorophenyl)-3-(methylamino)propoxy)phenyl)-N,N,3,4-tetramethyl-2H-pyrazolo[3,4-d]pyridazin-7-amine]: the figures for the Ki (at human μ-opioid receptor; in experiment [1]) were 100 to 500 nM and less than 500 nM, respectively.
In the same order, the values of `CNCC[C@H](Oc1ccccc1-n1nc2c(N(C)C)nnc(C)c2c1C)c1cccc(F)c1` [Example 103, (S)-2-(2-(1-(3-Fluorophenyl)-3-(methylamino)propoxy)phenyl)-N,N,3,4-tetramethyl-2H-pyrazolo[3,4-d]pyridazin-7-amine] are greater than 500 nM and less than 500 nM.
As to `Cc1nnc(N(C)C)c2nn(-c3ccccc3OC3CCNC3)c(C)c12` (stereo not drawn) [Example 50, N,N,3,4-Tetramethyl-2-(2-(pyrrolidin-3-yloxy)phenyl)-2H-pyrazolo[3,4-d]pyridazin-7-amine], the results for the Ki (on human μ-opioid receptor (setting [2]); in experiment [1] (setting [3])) were greater than 500 nM and greater than 5000 nM, respectively.
The corresponding values for `CCOc1ccc(OC(CCNC)c2ccccc2)c(-n2nc3c(N(C)C)nnc(C)c3c2C)c1` (stereo not drawn) [Example 89, 2-(5-ethoxy-2-(3-(methylamino)-1-phenylpropoxy)phenyl)-N,N,3,4-tetramethyl-2H-pyrazolo[3,4-d]pyridazin-7-amine] are greater than 500 nM and 500 to 5000 nM.
For the molecule `CNCCC(Oc1ccccc1-n1nc2c(N3CCOCC3)nnc(C)c2c1C)c1ccccc1` (stereo not drawn) [Example 23, 3-(2-(3,4-dimethyl-7-morpholino-2H-pyrazolo[3,4-d]pyridazin-2-yl)phenoxy)-N-methyl-3-phenylpropan-1-amine], the Ki is greater than 500 nM at human μ-opioid receptor (setting [2]) and 500 to 5000 nM in experiment [1] (setting [3]).
Take `CNCCC(Oc1ccccc1-n1nc2c(C(C)C)nnc(C)c2c1C)c1ccccc1` (stereo not drawn) [Example 70, 3-(2-(7-isopropyl-3,4-dimethyl-2H-pyrazolo[3,4-d]pyridazin-2-yl)phenoxy)-N-methyl-3-phenylpropan-1-amine]: the values for the Ki (on human μ-opioid receptor (setting [2]); in experiment [1] (setting [3])) were greater than 500 nM and greater than 5000 nM, respectively.
Consider `CCN(C)c1nnc(C)c2c(C)n(-c3ccccc3OC(CCNC)c3ccccc3)nc12` (stereo not drawn) [Example 37, N-ethyl-N,3,4-trimethyl-2-(2-(3-(methylamino)-1-phenylpropoxy)phenyl)-2H-pyrazolo[3,4-d]pyridazin-7-amine], for which the Ki on human μ-opioid receptor lay within 100 to 500 nM; in experiment [1], 500 to 5000 nM.
With `CNCCC(Oc1ccccc1-n1nc2c(N(C)CCO)nnc(C)c2c1C)c1ccccc1` (stereo not drawn) [Example 59, 2-((3,4-Dimethyl-2-(2-(3-(methylamino)-1-phenylpropoxy)phenyl)-2H-pyrazolo[3,4-d]pyridazin-7-yl)(methyl)amino)etanol], the figures for the Ki (on human μ-opioid receptor (setting [2]); in experiment [1] (setting [3])) were greater than 500 nM and 500 to 5000 nM, respectively.
